Test results reported in the NIST ThermoML archive (doi:10.1021/je900596d).
Numbers after ± are expanded uncertainties.

Settings: Vibrating tube method

FC(F)=C(F)C(F)(F)F [hexafluoropropene]
Settings	mass density [kg/m3]
303.28 K, 499 kPa, Fluid (supercritical or subcritical phases)	33.24 ± 0.05
303.28 K, 504.3 kPa, Fluid (supercritical or subcritical phases)	33.56 ± 0.06
303.28 K, 509.6 kPa, Fluid (supercritical or subcritical phases)	33.97 ± 0.06
303.28 K, 514.9 kPa, Fluid (supercritical or subcritical phases)	34.46 ± 0.06
303.28 K, 525.4 kPa, Fluid (supercritical or subcritical phases)	35.23 ± 0.06
303.28 K, 530.6 kPa, Fluid (supercritical or subcritical phases)	35.69 ± 0.06
303.28 K, 535.9 kPa, Fluid (supercritical or subcritical phases)	36.01 ± 0.06
303.28 K, 541.1 kPa, Fluid (supercritical or subcritical phases)	36.49 ± 0.06
303.28 K, 546.3 kPa, Fluid (supercritical or subcritical phases)	36.92 ± 0.06
303.28 K, 551.5 kPa, Fluid (supercritical or subcritical phases)	37.29 ± 0.06
303.28 K, 556.7 kPa, Fluid (supercritical or subcritical phases)	37.7 ± 0.06
303.28 K, 572.3 kPa, Fluid (supercritical or subcritical phases)	38.97 ± 0.06
303.28 K, 577.4 kPa, Fluid (supercritical or subcritical phases)	39.31 ± 0.06
303.28 K, 582.5 kPa, Fluid (supercritical or subcritical phases)	39.71 ± 0.06
303.28 K, 587.5 kPa, Fluid (supercritical or subcritical phases)	40.14 ± 0.06
303.28 K, 597.7 kPa, Fluid (supercritical or subcritical phases)	41.02 ± 0.06
303.28 K, 605.4 kPa, Fluid (supercritical or subcritical phases)	41.64 ± 0.07
303.28 K, 610.5 kPa, Fluid (supercritical or subcritical phases)	42.03 ± 0.07
303.28 K, 615.6 kPa, Fluid (supercritical or subcritical phases)	42.45 ± 0.07
303.28 K, 625.6 kPa, Fluid (supercritical or subcritical phases)	43.25 ± 0.07
303.28 K, 630.6 kPa, Fluid (supercritical or subcritical phases)	43.67 ± 0.07
303.28 K, 635.6 kPa, Fluid (supercritical or subcritical phases)	44.16 ± 0.07
303.28 K, 640.7 kPa, Fluid (supercritical or subcritical phases)	44.51 ± 0.07
303.28 K, 650.7 kPa, Fluid (supercritical or subcritical phases)	45.35 ± 0.07
303.28 K, 655.6 kPa, Fluid (supercritical or subcritical phases)	45.82 ± 0.07
303.28 K, 660.6 kPa, Fluid (supercritical or subcritical phases)	46.19 ± 0.07
303.28 K, 665.5 kPa, Fluid (supercritical or subcritical phases)	46.57 ± 0.07
303.28 K, 670.5 kPa, Fluid (supercritical or subcritical phases)	47.07 ± 0.07
303.28 K, 675.4 kPa, Fluid (supercritical or subcritical phases)	47.49 ± 0.07
303.28 K, 680.3 kPa, Fluid (supercritical or subcritical phases)	47.87 ± 0.08
303.28 K, 685.2 kPa, Fluid (supercritical or subcritical phases)	48.24 ± 0.08
303.28 K, 690 kPa, Fluid (supercritical or subcritical phases)	48.67 ± 0.08
303.28 K, 694.8 kPa, Fluid (supercritical or subcritical phases)	49.19 ± 0.08
303.28 K, 709.3 kPa, Fluid (supercritical or subcritical phases)	50.39 ± 0.08
303.28 K, 714.1 kPa, Fluid (supercritical or subcritical phases)	50.86 ± 0.08
303.28 K, 718.9 kPa, Fluid (supercritical or subcritical phases)	51.33 ± 0.08
303.28 K, 723.7 kPa, Fluid (supercritical or subcritical phases)	51.66 ± 0.08
303.28 K, 728.6 kPa, Fluid (supercritical or subcritical phases)	52.22 ± 0.08
303.28 K, 734.4 kPa, Fluid (supercritical or subcritical phases)	52.63 ± 0.08
303.28 K, 746.1 kPa, Fluid (supercritical or subcritical phases)	53.68 ± 0.08
303.28 K, 750.9 kPa, Fluid (supercritical or subcritical phases)	54.09 ± 0.08
303.28 K, 756.7 kPa, Fluid (supercritical or subcritical phases)	54.65 ± 0.08
303.28 K, 768.4 kPa, Fluid (supercritical or subcritical phases)	55.74 ± 0.09
303.28 K, 774.1 kPa, Fluid (supercritical or subcritical phases)	56.3 ± 0.09
303.28 K, 779.9 kPa, Fluid (supercritical or subcritical phases)	56.84 ± 0.09
303.28 K, 785.6 kPa, Fluid (supercritical or subcritical phases)	57.36 ± 0.09
303.28 K, 791.2 kPa, Fluid (supercritical or subcritical phases)	57.85 ± 0.09
303.28 K, 796.9 kPa, Fluid (supercritical or subcritical phases)	58.41 ± 0.09
303.28 K, 802.6 kPa, Fluid (supercritical or subcritical phases)	58.95 ± 0.09
303.28 K, 808.2 kPa, Fluid (supercritical or subcritical phases)	59.58 ± 0.09
303.28 K, 813.9 kPa, Fluid (supercritical or subcritical phases)	60.04 ± 0.09
303.28 K, 823.6 kPa, Fluid (supercritical or subcritical phases)	61.02 ± 0.09
303.28 K, 828.8 kPa, Fluid (supercritical or subcritical phases)	61.46 ± 0.09
303.28 K, 838 kPa, Fluid (supercritical or subcritical phases)	62.51 ± 0.11
303.28 K, 841.4 kPa, Fluid (supercritical or subcritical phases)	62.82 ± 0.12
303.28 K, 842 kPa, Fluid (supercritical or subcritical phases)	62.87 ± 0.12
303.28 K, 842.4 kPa, Fluid (supercritical or subcritical phases)	62.98 ± 0.12
303.28 K, 843.8 kPa, Fluid (supercritical or subcritical phases)	63.1 ± 0.1
303.28 K, 844.7 kPa, Fluid (supercritical or subcritical phases)	63.37 ± 0.1
303.28 K, 845.6 kPa, Fluid (supercritical or subcritical phases)	63.62 ± 0.1
303.28 K, 846.3 kPa, Fluid (supercritical or subcritical phases)	63.97 ± 0.11
303.28 K, 846.8 kPa, Fluid (supercritical or subcritical phases)	64.22 ± 0.11
303.28 K, 847.7 kPa, Fluid (supercritical or subcritical phases)	64.87 ± 0.12
303.28 K, 848.2 kPa, Fluid (supercritical or subcritical phases)	65.17 ± 0.12
303.36 K, 851.7 kPa, Liquid	1288.08 ± 1.3
303.36 K, 854.5 kPa, Liquid	1288.17 ± 1.3
303.36 K, 856.9 kPa, Liquid	1288.04 ± 1.3
